Experimental findings from ChEMBL document CHEMBL1128832, “Substituted alkylpyridines as P3 ligands for the hydroxyethylpiperazine class of HIV-1 protease inhibitors: Improved pharmacokinetic profiles” (Bioorg Med Chem Lett, 1995) are described below.

Data set [1] relates to MT4. As to the kind of experiment: Antiviral activity in MT-4 human lymphoid cells infected with IIIB isolate by viral spread assay. In kind it is functional. As to conditions: read-out: CIC95.
Data set [2] can be described thus: Half life to reach the blood concentration was determined in dogs after oral administration (10 mg/kg) as a 0.05 M citric acid solution. It is filed as ADME, organism-based, Canis lupus familiaris. As to conditions: dog.
The nature of data set [3]: Area under curve was determined in dogs after oral administration (10 mg/kg) as a 0.05 M citric acid solution. To be noted: dog, in vivo. In kind it is ADME, organism-based, Canis lupus familiaris.
Data set [4] in a line: Maximum plasma concentration in dogs after oral administration (10 mg/kg) as a 0.05 M citric acid solution. Further details: dose 10 mg/kg, route oral. In kind it is ADME, organism-based, Canis lupus familiaris. To be noted: dog.
Data set [5] is described as follows: Maximum time taken to reach maximum blood concentration was determined in dogs after oral administration (10 mg/kg) as a 0.05 M citric acid solution. In kind it is ADME, organism-based, Canis lupus familiaris. As to conditions: dog.
For data set [6], the target named is Human immunodeficiency virus type 1 protease (Human immunodeficiency virus 1, UniProt Q72874). Briefly: In vitro inhibitory activity against HIV-1 protease enzyme.
The nature of data set [7]: Half life to reach the blood concentration was determined in dogs after oral administration (8 mg/kg) as a 0.05 M citric acid solution. In kind it is ADME, organism-based, Canis lupus familiaris. As to conditions: dog.
The nature of data set [8]: Area under curve was determined in dogs after oral administration (8 mg/kg) as a 0.05 M citric acid solution. It is filed as ADME, organism-based, Canis lupus familiaris. As to conditions: dog, in vivo.
A short description of data set [9]: Maximum time taken to reach maximum blood concentration was determined in dogs after oral administration (8 mg/kg) as a 0.05 M citric acid solution. To be noted: dog. It is filed as ADME, organism-based, Canis lupus familiaris.
The nature of data set [10]: Maximum plasma concentration in dogs after oral administration (8 mg/kg) as a 0.05 M citric acid solution. It is filed as ADME, organism-based, Canis lupus familiaris. Details: dose 8 mg/kg, route oral. As to conditions: dog.

For `CC(C)c1cc(CN2CCN(C[C@@H](O)[C@H](Cc3ccccc3)NC(=O)O[C@@H]3CCS(=O)(=O)[C@@H]3C(C)C)[C@H](C(=O)NC(C)(C)C)C2)cc(C(C)C)n1`, in data set [1], the IC95 was 50 nM.

The term half-life denotes the time in which the quantity being followed falls by half. A low value points to rapid decline. The AUC is the area under the concentration-time curve, a measure of exposure. Usually Cmax stands for the highest concentration seen after dosing. As usually defined, the Tmax is the time from dosing to the highest level. As to `Cc1cc(CN2CCN(C[C@@H](O)[C@H](Cc3ccccc3)NC(=O)O[C@@H]3CCS(=O)(=O)[C@@H]3C(C)C)[C@H](C(=O)NC(C)(C)C)C2)ccn1`, the half-life in data set [2] is 121 min. The AUC in [3] is 7.4 µM·h. Also, the IC95 in [1] came out at 75 nM. Further, the Cmax in data set [4] was found to be 8.6 µM. The Tmax in [5] is 10 min.

A word on the IC50: it is the point on the concentration scale where inhibition reaches its midpoint. For the molecule `CCC(C)c1cc(CN2CCN(C[C@@H](O)[C@H](Cc3ccccc3)NC(=O)O[C@@H]3CCS(=O)(=O)[C@@H]3C(C)C)[C@H](C(=O)NC(C)(C)C)C2)ccn1` (stereo not given in full), half-maximal inhibition in data set [6] (IC50) required 1.2 nM. Moreover, the IC95 in [1] turned out to be 25 nM.

In data set [2], `CCc1cc(CN2CCN(C[C@@H](O)[C@H](Cc3ccccc3)NC(=O)O[C@@H]3CCS(=O)(=O)[C@@H]3C(C)C)[C@H](C(=O)NC(C)(C)C)C2)ccn1` returned a half-life of 91 min. This molecule displayed an AUC in data set [3] of 5.4 µM·h. Further, the IC95 in data set [1] was 81 nM. Further, in data set [4], the Cmax was determined as 4.1 µM. Moreover, in [5], the Tmax is 20 min.

As for `CC(C)c1cc(CN2CCN(C[C@@H](O)[C@H](Cc3ccccc3)NC(=O)O[C@@H]3CCS(=O)(=O)[C@@H]3C(C)C)[C@H](C(=O)NC(C)(C)C)C2)ccn1`, the IC95 in data set [1] stood at 67 nM.

`Cc1cc(CN2CCN(C[C@@H](O)[C@H](Cc3ccccc3)NC(=O)O[C@@H]3CCS(=O)(=O)[C@@H]3C(C)C)[C@H](C(=O)NC(C)(C)C)C2)cc(C)n1` returned a half-life in data set [7] of 28 min. Moreover, the AUC in data set [8] was 4.5 µM·h. The Tmax in data set [9] was 40 min. The molecule also registered a Cmax in [10] of 3.6 µM. The IC95 in data set [1] worked out at 50 nM.

`CCc1cc(CN2CCN(C[C@@H](O)[C@H](Cc3ccccc3)NC(=O)O[C@@H]3CCS(=O)(=O)[C@@H]3C(C)C)[C@H](C(=O)NC(C)(C)C)C2)cc(CC)n1` had a half-life in data set [2] of 36 min. The molecule also registered an AUC in [3] of 2.9 µM·h. Moreover, the IC95 in [1] is 42 nM. The molecule also had a Cmax in [4] of 3 µM. Further, the Tmax in data set [5] is 25 min.

Consider `CCCc1cc(CN2CCN(C[C@@H](O)[C@H](Cc3ccccc3)NC(=O)O[C@@H]3CCS(=O)(=O)[C@@H]3C(C)C)[C@H](C(=O)NC(C)(C)C)C2)ccn1`, for which the half-life in data set [7] is 21 min. This molecule had an AUC in data set [8] of 1.5 µM·h. In addition, the Tmax in [9] is 25 min. Besides, the Cmax in [10] is 2.3 µM. In data set [1], the IC95 came out at 12 nM.

In turn, `CC(C)[C@@H]1[C@H](OC(=O)N[C@@H](Cc2ccccc2)[C@H](O)CN2CCN(Cc3ccncc3)C[C@H]2C(=O)NC(C)(C)C)CCS1(=O)=O` yielded a half-life in data set [2] of 24 min. This molecule displayed an AUC in data set [3] of 4.3 µM·h. Moreover, in data set [1], the IC95 came out at 200 nM. The same molecule displayed a Cmax in data set [4] of 6.7 µM. In addition, the Tmax in [5] is 25 min.

As for `CCCCc1cc(CN2CCN(C[C@@H](O)[C@H](Cc3ccccc3)NC(=O)O[C@@H]3CCS(=O)(=O)[C@@H]3C(C)C)[C@H](C(=O)NC(C)(C)C)C2)cc(CCCC)n1`, in data set [1], the IC95 is 25 nM.
